Patent US8946409B2, “Polycyclic β lactam derivatives for the treatment of cancer” (Board of Regents, The University of Texas System, priority 2011, dated 2015)
Where two headings read alike, the source gives them in different places.

Legend:
[1] = system: HT-29; assay: MTT assay, HT-29 cells; format: cell-based, human; conditions: HT-29, colon carcinoma, 72 hours, Table 1, read-out: IC50 in Cancer Cells Using the MTT Assay
Protocol: (§1) 8×10^3 cells/well were plated in a […]. Stock solutions of the agents were made in DMSO. Dilution of the compounds were in media with 10% FBS (fetal bovine serum). The cells were incubated in the drug for 72 hours and cell viability was determined by the MTT assay. IC50 was then calculated.

[2] = system: A-549; assay: MTT assay, A-549 cells; format: cell-based, human; conditions: A-549, Non-Small Cell Carcinoma of the Lung, 72 hours, Table 1, read-out: IC50 in Cancer Cells Using the MTT Assay
Protocol: as §1

[3] = system: BRO; assay: MTT assay, BRO cells; format: cell-based, human; conditions: melanoma, 72 hours, Table 1, read-out: IC50 in Cancer Cells Using the MTT Assay
Protocol: as §1

[4] = system: MDA-231; assay: MTT assay, MDA-231 cells; format: cell-based, human; conditions: MDA-231, breast cancer, 72 hours, Table 1, read-out: IC50 in Cancer Cells Using the MTT Assay
Protocol: as §1

[5] = system: PC-3; assay: MTT assay, PC-3 cells; format: cell-based, human; conditions: PC-3, carcinoma of the prostate, 72 hours, Table 1, read-out: IC50 in Cancer Cells Using the MTT Assay
Protocol: as §1

[6] = system: PANC-1; assay: MTT assay, PANC-1 cells; format: cell-based, human
Protocol: as §1

[7] = system: ASCP-1; assay: MTT assay, ASCP-1 cells; format: cell-based; conditions: Homo sapiens, Table 2, read-out: IC50 against Human Pancreatic Cancer Lines Using the MTT Assay
Protocol: as §1

[8] = system: Pan02.03; assay: MTT assay, Pan02.03 cells; format: cell-based; conditions: Homo sapiens, Table 2, read-out: IC50 against Human Pancreatic Cancer Lines Using the MTT Assay
Protocol: as §1

[9] = system: SW-1990; assay: MTT assay, SW-1990 cells; format: cell-based; conditions: Homo sapiens, SW1990, Table 2, read-out: IC50 against Human Pancreatic Cancer Lines Using the MTT Assay
Protocol: as §1

[10] = system: CoLo35FG; assay: MTT assay, CoLo35FG cells; format: cell-based; conditions: Homo sapiens, Table 2, read-out: IC50 against Human Pancreatic Cancer Lines Using the MTT Assay
Protocol: as §1

[11] = system: BXPC-3; assay: MTT assay, BXPC-3 cells; format: cell-based; conditions: Homo sapiens, Table 2, read-out: IC50 against Human Pancreatic Cancer Lines Using the MTT Assay
Protocol: as §1

[12] = system: Miapaca-2; assay: MTT assay, Miapaca-2 cells; format: cell-based, human; conditions: for IC50: Homo sapiens, MIA PaCa-2, Miapaca-2, Table 2, read-out: IC50 against Human Pancreatic Cancer Lines Using the MTT Assay
Protocol: as §1

[13] = Body weight of tumor-bearing mice during treatment; format: in vivo, athymic nude mice; conditions: determined weekly through the treatment regimen
Protocol: (§2) The anti-tumorigenic activity of TX-262 was assessed in 4 week old male athymic nude mice by using a luciferase gene, stably-expressing, highly aggressive line of human pancreatic cells, MPanc96. 2×10^5/50 ul luciferase-labeled MPanc96 cells were injected directly into the mouse pancreas. […] Bioluminescent imagining was utilized to estimate tumor volume and location and mice were then divided into two groups such that the mean tumor size was equal between the groups. For the next five weeks mice in the control group were treated with DMSO only; while Group II mice were treated Monday through Friday as follows: 100 mg/K bw i.p. at zero time [AM] and a booster dose of 25 mg/K bw i.p. 90 minutes later. Each week body weight and mortality were recorded and tumor growth was monitored by bioluminescence imaging.

[14] = system: MPanc96 cells; assay: In vivo anti-tumorigenic activity, luciferase-labeled MPanc96 cells injected into mouse pancreas; set-up: species or system athymic nude mice
Protocol: as §2
Bioluminescence imaging utilized a cryogenically cooled image system coupled to a data acquisition computer running LivingImage Software [Xenogen Corp., Alameda Calif.]. Prior to imaging, the mice were anesthetized in an acrylic chamber using 1.5% isofluoroane/air mixture and injected i.p. with 40 mg/ml of luciferin potassium salt in PBS at a dose of 150 mg/K bw.
A digital grayscale animal image was acquired followed by acquisition and overlay of a pseudo color image representing the spacial distribution of detected photons emerging from active luciferase within the mouse. […]

[15] = PANC-1, pancreatic cancer, 72 hours, Table 1, read-out: IC50 in Cancer Cells Using the MTT Assay
[16] = Homo sapiens, PANC-1, PANC-1, Table 2 (average of runs), read-out: IC50 against Human Pancreatic Cancer Lines Using the MTT Assay

N.N.[Cl][Pt][Cl] [Cisplatin, cisplatin]
IC50 [1]: 17000 nM
IC50 [2]: > 100000 nM
IC50 [3]: 5700 nM
IC50 [4]: 10100 nM
IC50 [5]: 2100 nM
IC50 [6, 15]: > 100000 nM

CN1CCN(C(=O)CCC(=O)Nc2cc3c4ccccc4ccc3c3ccccc23)CC1 [Compound 1b, 1-N-6′-Chrysenyl-4′-4-N-methylpiperazine-butane-1,4-dicarboxyamide]
IC50 [1]: 16700 nM
IC50 [2]: > 100000 nM
IC50 [3]: 33600 nM
IC50 [4]: 12200 nM
IC50 [5]: 27300 nM
IC50 [6, 15]: > 100000 nM

CS(=O)(=O)O[C@H]1C(=O)N(c2cc3c4ccccc4ccc3c3ccccc23)C1c1ccccn1 (stereo partly drawn) [Compound 12, (3R)-1-(chrysen-6-yl)-2-oxo-4-(pyridin-2-yl)azetidin-3-yl methanesulfonate]
IC50 ([1]; Homo sapiens): 360 nM
IC50 [7]: 1500 nM
IC50 [8]: 390 nM
IC50 [9]: 1300 nM
IC50 [10]: 2700 nM
IC50 ([2]; Homo sapiens, A549): 960 nM
IC50 ([3]; Homo sapiens): 640 nM
IC50 ([4]; Homo sapiens, MDA-MB-231): 430 nM
IC50 ([5]; Homo sapiens): 510 nM
IC50 [11]: 430 nM
Effective concentration relative to the concentration required by GEM ([12]; GEM-resistant line Miapaca-2): approximately one-half
IC50 [12]: 12000 nM
IC50 ([6]; Homo sapiens, PANC-1, 72 h, PANC-1, pancreatic cancer, 72 hours, Table 1, read-out: IC50 in Cancer Cells Using the MTT Assay): 430 nM
IC50 [6, 16]: < 1000 nM
IC50 ([6]; PANC-1, Table 2 (average of runs), read-out: IC50 against Human Pancreatic Cancer Lines Using the MTT Assay): 750 nM
Weights of mice, treated versus control [13]: No significant differences
Viable tumor mass relative to that in control mice ([14]; at 5 weeks, 100 mg/K bw i.p. plus 25 mg/K bw i.p. 90 minutes later, Monday through Friday, bioluminescence imaging): approximately 33%
Surviving (viable) mice ([14]; at 6 weeks, control mice 20%): 80%

Nc1ccn([C@@H]2O[C@H](CO)[C@@H](O)C2(F)F)c(=O)n1 [GEM, gemcitabine]
IC50 [7]: 100 nM
IC50 [8]: 150 nM
IC50 [9]: 400 nM
IC50 [11]: 300 nM
IC50 [12]: 25700 nM
IC50 [6, 16]: > 300000 nM
IC50 against Human Pancreatic Cancer Lines Using the MTT Assay ([6]; PANC-1, Table 2 (average of runs)): inactive
